9 molecules from EP0968649A1, “Adjuvants for novel dry herbicide formulations” (E.I. DU PONT DE NEMOURS AND COMPANY, priority 1998, dated 2000) can be followed below.

Common to all, as to assay type: in vivo
Test [1] concerns velvetleaf (Abutilon theophrastic). Put plainly: Example 23: adjuvants tank mixed with chlorimuron ethyl, percent control from green fresh weights. The note with it: herbicide alone, no adjuvant; chlorimuron ethyl 1.5 g/ha; 187 L/ha; after two weeks. Here is the method:
(§1) The effect of adjuvants on the activity of chlorimuron ethyl was investigated by tank mixing the adjuvants with the herbicide. Evaluation of the adjuvants was made by mixing the adjuvant with an herbicide solution and spraying the resulting solution at a rate of 1.5 g/ha chlorimuron ethyl in a spray volume of 187 L/ha on velvetleaf (Abutilon theophrastic). Four replications were made of each treatment. Plants were evaluated after two weeks by measuring their green fresh weights and convening these weight by comparison to an untreated control treatment into percent control values.

In test [2] the test system is giant foxtail (Setaria faberi). Put plainly: Example 21: adjuvants tank mixed with isopropylamine salt of glyphosate, percent control from green fresh weights. The following applies: herbicide alone, no added adjuvant; 210 g/ha isopropylamine salt of glyphosate; 187 L/ha; after two weeks. Here is the method: as §1, with “of the isopropylamine salt of glyphosate” for “of chlorimuron ethyl”, “of 210” for “of 1.5”, “g/ha isopropylamine salt of glyphosate” for “g/ha chlorimuron ethyl”, “on giant foxtail (Setaria faberi).” for “on velvetleaf (Abutilon theophrastic).”, “and converting” for “and convening”

Test [3] has as its system Alopecurus myosuroides (ALOMY). As to the kind of experiment: Example 8: field weed control, adjuvants mixed with flupyrsulfuron methyl, visual percent growth reduction and head count. The following applies: surfactant, where named, 0.1%; for % control ALOMY: 300 L/ha, 60 days after treatment; for Heads/m^2 ALOMY: at 85 days, untreated 784. From the text:
(§2) Evaluation of the adjuvants was made, in the field by mixing the adjuvant with flupyrsulfuron methyl herbicide and spraying the resulting solution at a rate of 2.5 to 20 g/ha flupyrsulfuron methyl in a spray volume of 300 L/ha on Alopecurus myosuroides (ALOMY). Surfactants were applied at a concentration of 0.1 % by weight of SC5045 or 0.1 % by volume of Trend® 90 per volume of spray solution. Three replications were made of each treatment. Weed control was visually assessed 60 days after treatment by evaluating the percent growth reduction, using a 0 to 100% scale where 0% equals no control, and 100% equals death of the weed and by counting the number of ALOMY heads per m^2, at 85 days.

For test [4], the system named is giant foxtail (Setaria faberi). As to the kind of experiment: Example 19: adjuvants tank mixed with nicosulfuron, percent control from green fresh weights. The following applies: Adjuvant Conc. 0 % w/w (no adjuvant); nicosulfuron 3.5 g/ha; 187 L/ha; after two weeks. The procedure: (§3) The effect of adjuvants on the activity of nicosulfuron was investigated by tank mixing the adjuvants with the herbicide. Evaluation of the adjuvants was made by mixing the adjuvant with a nicosulfuron solution and spraying the resulting solution at a rate of 3.5 g/ha nicosulfuron in a spray volume of 187 L/ha on giant foxtail (Setaria faberi). Three replications were made of each treatment. Plants were evaluated after two weeks by measuring their green fresh weights and converting these weight by comparison to an untreated control treatment into percent control values.

Test [5] relates to giant foxtail (Setaria faberi). As to the kind of experiment: Example 20: adjuvants tank mixed with nicosulfuron, percent control from green fresh weights. The following applies: herbicide alone, no adjuvant; nicosulfuron 3.5 g/ha; 187 L/ha; after two weeks. The procedure: as §3, with “Four” for “Three”, “treatment. The experiment was repeated three times.” for “treatment.”
For test [6], the system named is giant foxtail (Setaria faberi). Put plainly: Example 22: adjuvants tank mixed with quizalofop-ethyl, percent control from green fresh weights. The note with it: herbicide alone, no adjuvant; quizalofop-ethyl 3.5 g/ha; 187 L/ha; after two weeks. The procedure:
as §3, with “of quizalofop-ethyl” for “of nicosulfuron”, “with an herbicide” for “with a nicosulfuron”, “g/ha quizalofop-ethyl” for “g/ha nicosulfuron”, “faberi). Four” for “faberi). Three”, “treatment. The experiment was repeated two times.” for “treatment.”

The test system of test [7] is Alopecurus myosuroides (ALOMY). Put plainly: Example 6: field weed control, SCS5045 surfactant mixed with sulfosulfuron, visual percent growth reduction and head count. The note with it: where named, 0.1%; for % control ALOMY: 300 L/ha, 60 days after treatment; for Heads/m^2 ALOMY: counted 85 days after treatment, untreated 400.
Source text: as §2, with “SCS5045 surfactant” for “the adjuvants”, “surfactant” for “adjuvant”, “sulfosulfuron” for “flupyrsulfuron methyl”, “11.25” for “2.5”, “45 g /ha sulfosulfuron” for “20 g/ha flupyrsulfuron methyl”, “weed.” for “weed and by counting the number of ALOMY heads per m^2, at 85 days.”
The number of ALOMY heads per m^2 was also counted 85 days after treatment.

For test [8], the system named is Veronica hederifolia (VERHE). As to the kind of experiment: Example 7: field weed control, SCS5045 surfactant mixed with metsulfuron methyl, visual percent growth reduction. The note with it: where named, 0.1%, 300 L/ha, 50 days after treatment. An excerpt: Evaluation of SCS5045 surfactant was made, in the field by mixing the surfactant with metsulfuron methyl herbicide and spraying the resulting solution at a rate of 5.625 to 45 g/ha metsulfuron methyl in a spray volume of 300 L/ha on Veronica hederifolia (VERHE). Surfactants were applied at a concentration of 0.1% by weight (if the surfactant is dry) or by volume (if the surfactant is a liquid) of surfactant per volume of spray solution. Three replications were made of each treatment. Weed control was visually assessed 50 days after treatment by evaluating the percent growth reduction, using a 0 to 100% scale where 0% equals no control, and 100% equals death of the weed.

The test system of test [9] is common lambsquarters (Chenopodium album L.). As to the kind of experiment: Example 24: adjuvants tank mixed with thifensulfuron methyl, percent control from green fresh weights. The note with it: herbicide alone, no adjuvant; thifensulfuron methyl 2 g/ha; 187 L/ha; after two weeks. Here is the method:
as §1, with “thifensulfuron methyl” for “chlorimuron ethyl”, “2” for “1.5”, “common lambsquarters (Chenopodium album L.).” for “velvetleaf (Abutilon theophrastic).”, “converting” for “convening”

Test [10] concerns Veronica agrestis (VERAG). As to the kind of experiment: Example 5: weed control, SCS5045 surfactant mixed with tribenuron methyl, visual percent growth reduction. The following applies: where named, 0.1%, 300 L/ha, 70 days after treatment. From the text: (§4) Evaluation of SCS5045 surfactant was made by mixing the surfactant with tribenuron methyl herbicide and spraying the resulting solution at a rate of 5.625 to 45 g/ha tribenuron methyl in a spray volume of 300 L/ha on Viola arvensis (VIOAR) and Veronica agrestis (VERAG). Surfactants were applied at a concentration of 0.1% by weight (if the surfactant is dry) or by volume (if the surfactant is a liquid) of surfactant per volume of spray solution. Three replications were made of each treatment. Weed control was visually assessed 70 days after treatment by evaluating the percent growth reduction, using a 0 to 100% scale where 0% equals no control, and 100% equals death of the weed.

In test [11] the test system is Viola arvensis (VIOAR). Described as above. The following applies: where named, 0.1%, 300 L/ha, 70 days after treatment.
Source text: as §4

The mark [12] stands for this setting: flupyrsulfuron methyl 2.5 g herbicide /ha.
Setting [13] is: flupyrsulfuron methyl 5 g herbicide /ha.
Setting [14] is: flupyrsulfuron methyl 10 g herbicide /ha.
Setting [15] is: flupyrsulfuron methyl 20 g herbicide /ha.
The mark [16] stands for this setting: sulfosulfuron 11.25 g herbicide /ha.
[17] abbreviates: sulfosulfuron 22.5 g herbicide /ha.
[18] abbreviates: sulfosulfuron 33.75 g herbicide /ha.
[19] abbreviates: sulfosulfuron 45 g herbicide /ha.
Setting [20] is: tribenuron methyl 5.625 g ai/ha.
Where [21] appears, read: tribenuron methyl 11.25 g ai/ha.

As to `CCOC(=O)c1ccccc1S(=O)(=O)NC(=O)Nc1nc(Cl)cc(OC)n1` [Chlorimuron Alone, chlorimuron ethyl], the “% Velvetleaf Control” value in test [1] is recorded as 53%.
On to `CC(C)N.O=C(O)CNCP(=O)(O)O` [Glyphosate IPA Alone, isopropylamine salt of glyphosate], for which, in test [2], the “% Control” value is listed as 85%.
For `COC(=O)c1ccc(C(F)(F)F)nc1S(=O)(=O)NC(=O)Nc1nc(OC)cc(OC)n1` [KE459, flupyrsulfuron methyl], the “% control ALOMY” value is recorded as 63% in test [3] (setting [12]), 73% in [3] (setting [13]), 77% in test [3] (setting [14]) and 88% in [3] (setting [15]). The “Heads/m^2 ALOMY” value in [3] (setting [12]) was determined as 224 Heads/m^2; in test [3] (setting [13]) it was 164 Heads/m^2; in test [3] (setting [14]), 16 Heads/m^2; in [3] (setting [15]) it was 8 Heads/m^2.
Regarding `COc1cc(OC)nc(NC(=O)NS(=O)(=O)c2ncccc2C(=O)N(C)C)n1` [Nicosulfuron Alone, nicosulfuron], in test [4], the percent control worked out at 0%. For the same molecule, the “% Control” value in [5] worked out at 2%.
Turning to `CCOC(=O)C(C)Oc1ccc(Oc2cnc3cc(Cl)ccc3n2)cc1` (stereo not shown) [Quizalofop Ethyl Alone, quizalofop-ethyl], the “% Control” value in test [6] was 7%.
With `CCS(=O)(=O)c1nc2ccccn2c1S(=O)(=O)NC(=O)Nc1nc(OC)cc(OC)n1` [Sulfosulfuron, sulfosulfuron], the “% control ALOMY” value in test [7] (setting [16]) stood at 33%; in [7] (setting [17]) it was 47%; in [7] (setting [18]), 60%; in [7] (setting [19]) it was 77%. Besides, the “Heads/m^2 ALOMY” value turned out to be 209 Heads/m^2 in test [7] (setting [16]), 76 Heads/m^2 in [7] (setting [17]), 25 Heads/m^2 in test [7] (setting [18]) and 6 Heads/m^2 in test [7] (setting [19]).
For `COC(=O)c1ccccc1S(=O)(=O)NC(=O)Nc1nc(C)nc(OC)n1` [T6376, metsulfuron methyl], the “VERHE (percent growth reduction)” value is listed as 33% in [8] (metsulfuron methyl 5.625 g herbicide /ha), 33% in test [8] (metsulfuron methyl 11.25 g herbicide /ha), 52% in test [8] (metsulfuron methyl 22.5 g herbicide /ha) and 100% in test [8] (metsulfuron methyl 45 g herbicide /ha).
For the molecule `COC(=O)c1sccc1S(=O)(=O)NC(=O)Nc1nc(C)nc(OC)n1` [Thifensulfuron Alone, thifensulfuron methyl], in test [9], the “% Common Lambsquarters Control” value amounted to 11%.
In the case of `COC(=O)c1ccccc1S(=O)(=O)NC(=O)N(C)c1nc(C)nc(OC)n1` [Tribenuron methyl, tribenuron methyl], the “% control VERAG” value is 47% in test [10] (setting [20]), 60% in test [10] (setting [21]), 63% in test [10] (tribenuron methyl 22.5 g ai/ha) and 87% in test [10] (tribenuron methyl 45 g ai/ha). In addition, the “% control VIOAR” value in [11] (setting [20]) is on record as 27%; in test [11] (setting [21]) it was 75%; in test [11] (tribenuron methyl 22.5 g ai/ha), 80%; in test [11] (tribenuron methyl 45 g ai/ha), 99%.
